A value given as a limit tells only on which side of the number the result lay.

The compound `CC(C)c1c(Oc2ccccc2)n(COCc2ccccc2)c(=O)[nH]c1=O` had a melting point of 118 °C.

`CCN(CC)c1ccc(C(=O)O)nc1` gave a melting point of 146 to 148 °C.

Compound `COC(=O)CC(=O)c1cnccn1` displayed a melting point of 109 to 110 °C.

`COCC1CCCN1S(=O)(=O)c1ccc2c(c1)C(=O)C1=NCC3(CCCC3)CN12` (stereo unspecified): the melting point was 171 to 172 °C.

As for `CCCCCCCCCCCCc1c[nH]c2cc(C(=O)OC)ccc12`, the melting point was 85 to 89 °C.

With `COC(=O)c1cc(-c2ccc(SC)cc2)nn(CC=Cc2ccc(Cl)cc2)c1=O`, the melting point is 123 to 126 °C.

`CCn1c(SCc2ccccn2)nc2ccccc2c1=O`: the melting point was 110 to 111 °C.

In turn, `CC(Oc1ccc2c(c1)OCC(Cc1ccccn1)C2O)c1ccc2ccccc2n1` (stereo unspecified) yielded a melting point of 73 °C.

In turn, `Cc1ccc(S(=O)(=O)N(Cc2ccccc2)N=O)cc1` registered a melting point of 92 to 93 °C.

`C=CCN1C(=O)COc2cc(F)c(N)cc21`: the melting point lay within 171 to 172 °C.

The compound `Oc1cc(-c2c3ccccc3c(Br)c3sc4ccccc4c23)ccc1Br` registered a melting point of 111 to 112 °C.

With `COc1ccc(NS(C)(=O)=O)cc1CN1CCC(=O)C(C(c2ccccc2)c2ccccc2)C1` (stereo unspecified), the melting point fell in the range of 132 to 135 °C.

Compound `CCc1nccn1-c1ccc(NC(=O)NC)cc1` showed a melting point of 228 to 232 °C.

In turn, `O=S(=O)(c1ccccc1)N1CCC(Nc2nc(Cl)nc(N3CCCC3)n2)CC1` registered a melting point of 184 to 186 °C.

As for `COC(=O)COC(=O)COc1ccc([N+](=O)[O-])cc1`, the melting point fell in the range of 88 to 90 °C.

`CC(=O)OC1CC2=CC(=O)C3C4CCCC4(C)CCC3C2(C)C(OC(C)=O)C1` (stereo unspecified) returned a melting point of 220 to 221 °C.

As to `CCCCn1c(C)c(C)cc(NC(=O)Nc2ccccc2Br)c1=O`, the melting point fell in the range of 154 to 155 °C.

Consider `COc1cc2c(cc1Nc1ncc(Cl)c(Nc3ccc(N(C)C)cc3OC)n1)CCN(CC(=O)N(C)C)CC2`, for which the melting point was in the range of 69 to 83 °C.

Compound `N=C(N)NCCSCc1nccs1` returned a melting point of 120 to 122 °C.

`CCOC(=O)CCC1CCN(c2ccc(C#N)c3ccccc23)CC1` had a melting point of 106 to 107 °C.

Consider `O=S(=O)(c1ccc(F)cc1)c1c[nH]c2ncccc12`, for which the melting point fell in the range of 212 to 213 °C.

With `CC[Si](CC)(c1ccc(N(c2ccccc2)c2ccccc2)cc1)c1ccc(N(c2ccccc2)c2ccccc2)cc1`, the melting point is 154 to 155 °C.

`N#CNC(=Nc1ccncc1)NCC(O)COc1ccc(Cl)cc1` (stereo unspecified) returned a melting point of 149 to 151 °C.

For the compound `CN1CC[C@@H](c2c(O)cc(O)c3c(=O)cc(-c4ccc(N)cc4)oc23)[C@@H]1CO`, the melting point lay in the range of 172 to 174 °C.

`CNC(=O)C(=NOC)c1ccccc1CO` came in with a melting point of 100 to 102 °C.

`O=C(c1ccccc1)N1CCC(c2c[nH]c3cc(F)ccc23)CC1` gave a melting point of 220 °C.

Regarding `Cc1coc2cc(N3CCCCC3)c(Cl)cc12`, the melting point fell in the range of 82 to 84 °C.

`c1ccc(-n2c(-c3cccnc3)nc3ccccc32)cc1`: the melting point was in the range of 110 to 112 °C.

Turning to `O=C1CCCCN1C1=CC(CF)(CF)Oc2ccc(C(F)(F)C(F)(F)F)cc21`, the melting point was 149 to 150 °C.

The compound `CCc1nnc(-c2ccc(OC)cc2)n1-c1ccccc1C` yielded a melting point of 118 °C.

In turn, `CCCc1c(C(=O)C2CCCCC2)c2ccc(C(N)=O)cc2n1Cc1cc2c(cc1Cl)OCO2` yielded a melting point of 209 to 211 °C.

`CCOc1cc2c(cc1S(=O)(=O)NC(=S)NC)C(CNC(=O)c1cc(Cl)ccc1OC)CCO2` (stereo unspecified) showed a melting point of 202 °C.

For the compound `O=C(O)c1c(Cc2cc3c(cc2Cl)OCO3)c(-c2ccco2)nn1CC1CCCCC1`, the melting point is 248 °C.

Consider `C[C@@H](n1cnc2cc(Oc3ccc(Cl)cc3)ccc2c1=O)[C@](O)(Cn1cncn1)c1ccc(F)cc1F`, for which the melting point was in the range of 198 to 199 °C.

`COC(=O)c1cc(OCc2ccc(OCc3nc(-c4ccco4)oc3C)c(OC)c2)nn1-c1ccccc1` came in with a melting point of 146 to 147 °C.

As to `Clc1ccc(COC(CNc2ccc(Cl)c(Cl)c2)Cn2ccnc2)cc1` (stereo unspecified), the melting point was 102 to 103 °C.

Regarding `Cc1nc(C=Cc2nc3ccc(F)cc3c(=O)n2-c2ccccc2C)cs1`, the melting point is 211 to 212 °C.

With `CC(=O)Nc1cccc(C#Cc2ccc([C@@H]3CC[C@@H]4CCCCN43)cc2)c1` (relative stereo), the melting point lay in the range of 161 to 163 °C.

Turning to `CC(C)CCC(Sc1ccccc1)c1c(O)cc(-c2ccccc2)oc1=O` (stereo unspecified), the melting point lay in the range of 144 to 145 °C.

Regarding `CCN(CC)c1ccc(C2(c3ccc(N(C)C)cc3)OC(=O)c3ccccc32)c(N(CC)CC)c1` (stereo unspecified), the melting point fell in the range of 117 to 119 °C.

`CCn1c(C=NNC(N)=S)cnc1[N+](=O)[O-]` showed a melting point of 220 to 222 °C.

In the case of `Cn1c(=O)cc(-c2cccc(Cl)c2)c2cc(C(C)(c3ccc(Cl)cc3)n3ccnc3)ccc21` (stereo unspecified), the melting point worked out at 120 °C.

Consider `C#Cc1ccc2c(c1)CCC2=O`, for which the melting point was 157 °C.

`O=C(Nc1ccc(C(=O)N2Cc3ccccc3Cc3ccccc32)cc1)c1cccnc1`: the melting point was 217 to 220 °C.

Compound `Nc1ccc(C(=O)c2cnc(NC3CCCCC3)s2)cc1[N+](=O)[O-]` had a melting point of 245 to 250 °C.

As to `COC(=O)C(Oc1cc(OCc2ccsc2)ccc1C#N)c1ccccc1Br` (racemic), the melting point fell in the range of 92 to 95 °C.

Regarding `COC1=C(OC)C(=O)C2=C(CC(CCCCCCCCN3CCN(Cc4ccccc4)CC3)C2)C1=O`, the melting point lay within 80 to 81 °C.

`CCOc1nc2c(cnn2CC)nc1C(=O)Cl`: the melting point lay within 86 to 87 °C.

For `O=P(O)(O)C(Cc1cnsn1)P(=O)(O)O`, the melting point was greater than 300 °C.

In the case of `ClCCn1cnc2c(NC3CCCCC3)nc(Cl)nc21`, the melting point was 150 to 152 °C.

Regarding `CC(C)(C)OC(=O)Nc1ccccc1NC(=O)c1nc2c(s1)CN(C(=O)OC(C)(C)C)CC2`, the melting point is 188 °C.

`COc1cc(OS(=O)(=O)OC(F)(F)F)c2c(=O)c3ccc(Cl)cc3n(C)c2c1` showed a melting point of 234 to 236 °C.

Regarding `COC(=O)Cn1c(C(=O)Nc2nc(-c3cc(OC)c(Cl)cc3OC)c(CC3CCCCC3)s2)cc2cc(C)cc(C)c21`, the melting point lay in the range of 143 to 145 °C.

For the compound `CCc1nn(C2CCCC2)c(N)c1C#N`, the melting point was 171 to 173 °C.

On to `O=C(O)CCc1cn(Cc2ccc(OCc3ccc(-c4ccccc4)nc3)cc2)nc1-c1ccccc1`, for which the melting point was 155 to 156 °C.

`Cc1cc(-c2ccc(Cl)cc2)nc2c(I)cnn12` had a melting point of 147 to 148 °C.

Consider `CC(C)n1nc(-c2c(Nc3ccccc3)nc(N)nc2-c2ccccc2)ccc1=O`, for which the melting point was 240 to 242 °C.

Compound `N#CC(=CNc1ccccc1)Cc1cnc2ccccc2c1` gave a melting point of 202 to 203 °C.

The compound `COc1ccc(Cl)cc1NC(=NN)c1cc(C(F)(F)F)cc(C(F)(F)F)c1` returned a melting point of 117 to 120 °C.

Take `CS(=O)(=O)Nc1cc([N+](=O)[O-])ccc1Oc1ccccc1`: the melting point is 112 to 114 °C.

Take `CC1=C(C(=O)OCCN(C)Cc2ccccc2)C(c2cccc([N+](=O)[O-])c2)c2c(N)nc(N)nc2N1` (stereo unspecified): the melting point is 162 °C.

As to `Oc1nn(-c2ccc(Cl)c(Cl)c2)cc1-c1ccccc1`, the melting point was in the range of 244 to 245 °C.

`CN(C(=O)CCc1ccc(CN2CCC3(CCCC3)CC2)cc1)c1ccc(-c2ccc(Cl)cc2)cc1` showed a melting point of 119 °C.

Regarding `O=Cc1cnn(-c2cccc(C(F)(F)F)c2)c1`, the melting point lay within 80 to 82 °C.

The compound `Cc1nc(-c2cc(Cl)ccc2Cl)n2c1nnc1cc(F)ccc12` yielded a melting point of 186 to 190 °C.

`Cc1nnc(-c2nnc(SCCC(F)=C(F)F)o2)o1` displayed a melting point of 77 to 79 °C.

In the case of `COc1ccc(-n2nc3c(cc2=O)CCCc2sc(CO)cc2-3)cc1`, the melting point is 130 to 131 °C.

In turn, `COc1cc([N+](=O)[O-])c(C(OC(=O)C(Cl)(Cl)Cl)c2ccccc2)c([N+](=O)[O-])c1OC` (stereo unspecified) yielded a melting point of 105 to 106 °C.

As for `CC(=O)OC1CC2C3CCC(C(C)CCCC(C)C)C3(C)CCC2C2(C)CC(F)C(O)CC12` (stereo unspecified), the melting point fell in the range of 148 to 150 °C.

The compound `CCC12CCC3C4CCC(=O)C=C4C(Cl)CC3C1C(OC(C)=O)CC2=O` (stereo unspecified) yielded a melting point of 115 °C.

For `c1ccc2c(c1)NC(CN1CCOCC1)CO2` (stereo unspecified), the melting point lay in the range of 117 to 121 °C.

As for `COc1ccc2nc(-c3ccc(C=C4C(=O)C5(C)CCC4C5(C)C)cc3)[nH]c2c1` (stereo unspecified), the melting point was in the range of 138 to 142 °C.

With `CCOC(=O)C1=C(COC2CCNCC2)NC(C)=C(C(=O)OC)C1c1ccccc1Cl` (stereo unspecified), the melting point was in the range of 175 to 176 °C.

`CC(=O)Oc1ccc(-c2cc(=O)c3cccnc3o2)cc1`: the melting point was in the range of 167 to 169 °C.

`O=c1[nH]c(=S)[nH]cc1Cc1cnc2ccccc2c1` came in with a melting point of 290 to 292 °C.

On to `COc1ccc2cc([C@H](C)C(=O)OCC(=O)O)ccc2c1`, for which the melting point fell in the range of 122 to 123 °C.

`CC(O)c1ccc(C2(C(C)(C)C)OCCO2)cc1` (stereo unspecified): the melting point was 67 to 70 °C.

Turning to `COc1ccc(N2C(=O)N(c3ccccc3)c3nc(Nc4ccccc4)ncc3C2C(C)C)cc1` (stereo unspecified), the melting point lay in the range of 229 to 235 °C.

In turn, `CC(C)(C)c1ccc(Sc2ccc(Br)cc2)cc1` gave a melting point of 39 to 46 °C.

In turn, `CCCCOCCOc1ccc(-c2ccc3c(c2)C=C(C(=O)O)CCN3S(C)(=O)=O)cc1` came in with a melting point of 208 to 210 °C.

`CNc1cc(-c2ccc(Cl)cc2)nc2nn(C)cc12` had a melting point of 182 to 184 °C.

Compound `COc1ccc(CNC=C(C(C)=O)C(C)=O)cc1` registered a melting point of 91.2 to 92.2 °C.

For the compound `CCc1nc(/C=C/c2cn(-c3ccccc3)nc2OCc2ccc(OCc3nc(-c4cccc(CO)c4)oc3C)c(OC)c2)cs1`, the melting point is 130 to 132 °C.

As for `Cc1nn(-c2c(Cl)cc(C(F)(F)F)cc2Cl)c(N)c1SC(C)(F)F`, the melting point fell in the range of 123 to 125 °C.

For `COc1ccc(CNC(=O)Nc2ccc(CN3C(=O)[C@H]4CCC[C@H]4N(C(=O)CN4C(=O)c5ccccc5C4=O)c4ccccc43)cc2)cc1` (relative stereo), the melting point was 156 to 158 °C.

In turn, `CCn1nc(C)c([N+](=O)[O-])c1C(N)=O` showed a melting point of 175 to 177 °C.

What is called melting point is the temperature, or range, at which the solid turns liquid.
